Like-named read-outs stand apart in the source and are kept apart here. Some results are limits rather than exact numbers.

One series concerns MCF-7 cells. As to the kind of experiment: Test 1: growth inhibition of MCF-7 human breast cancer cells. In kind it is cell-based. The note with it: read-out: GI50 (50% growth inhibition concentration). As for the experimental part: Used in the test were MCF-7 cells which were established from human breast cancer and were cultured routinely under the conditions of 37° C. and 5% CO2, in MEM medium supplemented with 10% fetal calf serum, 25 mM of HEPES and 0.1 mg/ml of kanamycin. The MCF-7 cells in a logarithmic growth phase were treated with trypsin/EDTA to prepare single cell suspension adjusted to 4.0×10^4 cells/ml in MEM medium (supplemented with 10% fetal calf serum, 25 mM of HEPES and 0.1 mg/ml of kanamycin). Test compounds were dissolved in DMSO and diluted with RPMI 1640 medium (supplemented with 10% fetal calf serum, 25 mM of HEPES and 0.1 mg/ml of kanamycin) to a concentration of 2.0×10^−4-2.0×10^−9 M.
The cell suspension was filled in a 96-wells microplate at a rate of 0.1 ml per well and was cultured for 24 hours so as to make the cells adhered to the microplate. Then, it was added with 0.1 ml of the sample solution and cultured at 37° C. for 72 hours in 5% CO2.
50% Growth inhibition concentrations (GI50 μM) were calculated from growth inhibitions at various sample concentrations.

Setting [1] is: Homo sapiens, MCF7, 72 hours culture with sample.

As a reminder, the melting point is the temperature, or range, at which the solid turns liquid. `C[C@@H]1CN(c2nc(N3CCOCC3)nc(-n3c(NC=O)nc4ccccc43)n2)C[C@H](C)O1` [compound 28, 2-(cis-2,6-dimethylmorpholino)-4-(2-formylaminobenzimidazol-1-yl)-6-morpholino-1,3,5-triazine]: the melting point lay within 242 to 244 °C.

With `C[C@@H]1OCCN(c2nc(N3CCOCC3)nc(-n3c(C(F)F)nc4ccccc43)n2)[C@@H]1C` (relative stereo) [compound 13, 2-(2-difluoromethylbenzimidazol-1-yl)-4-(cis-2,3-dimethylmorpholino)-6-morpholino-1,3,5-triazine], the melting point fell in the range of 207 to 210 °C.

For `FC(F)c1nc2ccccc2n1-c1nc(N2CCOCC2)cc(N2CCSCC2)n1` [compound 3, 2-(2-difluoromethylbenzimidazol-1-yl)-4-morpholino-6-thiomorpholinopyrimidine], the melting point fell in the range of 173 to 175 °C. In addition, the GI50 in the series on MCF-7 cells (setting [1]) amounted to 380 nM.

The compound `C[C@@H]1OCCN(c2cc(N3CCOCC3)nc(-n3c(CO)nc4ccccc43)n2)[C@@H]1C` (relative stereo) [compound 10, 4-(cis-2,3-dimethylmorpholino)-2-(2-hydroxymethylbenzimidazol-1-yl)-6-morpholinopyrimidine] came in with a melting point of 125 to 128 °C. In the series on MCF-7 cells (setting [1]), the GI50 came to 130 nM.

Compound `C[C@@H]1OCCN(c2cc(N3CCOCC3)nc(-n3c(NC=O)nc4ccccc43)n2)[C@H]1C` (relative stereo) [compound 27, 4-(trans-2,3-dimethylmorpholino)-2-(2-formylaminobenzimidazol-1-yl)-6-morpholinopyrimidine] came in with a melting point of 143 to 146 °C. For the same compound, in the series on MCF-7 cells (setting [1]), the GI50 was 160 nM.

Consider `Cc1nc2ccccc2n1-c1nc(N2CCOCC2)nc(N2CCOCC2)n1` [compound B, 2-(2-methylbenzimidazol-1-yl)-4,6-dimorpholino-1,3,5-triazine, reference compound], for which the GI50 with MCF-7 cells (setting [1]) is 3700 nM.

On to `C[C@@H]1OCCN(c2cc(N3CCOCC3)nc(-n3c(N)nc4ccccc43)n2)[C@@H]1C.Cl` (relative stereo) [compound 30, 2-(2-aminobenzimidazol-1-yl)-4-(cis-2,3-dimethylmorpholino)-6-morpholinopyrimidine hydrochloride], for which the melting point lay within 151 to 155 °C. In the series on MCF-7 cells (setting [1]), the GI50 came out at 250 nM.

Turning to `C[C@@H]1OCCN(c2nc(N3CCOCC3)nc(-n3c(C(F)F)nc4cc(O)ccc43)n2)[C@@H]1C` (relative stereo) [compound 37, 2-(2-difluoromethyl-5-hydroxybenzimidazol-1-yl)-4-(2,3-cis-dimethylmorpholino)-6-morpholino-1,3,5-triazine], the melting point is 170 to 175 °C (dec.). Moreover, in the series on MCF-7 cells (setting [1]), the GI50 worked out at 90 nM.

`C[C@@H]1OCCN(c2cc(N3CCOCC3)nc(-n3c(C(F)F)nc4ccccc43)n2)[C@@H]1C` (relative stereo) [compound 1, 2-(2-difluoromethylbenzimidazol-1-yl)-4-(cis-2,3-dimethylmorpholino)-6-morpholinopyrimidine] gave a melting point of 167 to 169 °C. Besides, in the series with MCF-7 cells (setting [1]), the GI50 is 110 nM.

As for `C[C@H]1COC(C)(C)CN1c1cc(N2CCOCC2)nc(-n2c(C(F)F)nc3ccccc32)n1` [compound 8, 2-(2-difluoromethylbenzimidazol-1-yl)-4-morpholino-6-[2,2,5(S)-trimethylmorpholino]pyrimidine], the melting point is 113 to 116 °C. Also, the GI50 in the series on MCF-7 cells (setting [1]) came to 320 nM.

Compound `CC(=O)Nc1nc2ccccc2n1-c1nc(N2CCOCC2)cc(N2CCO[C@@H](C)[C@@H]2C)n1` (relative stereo) [compound 23, 2-(2-acetylaminobenzimidazol-1-yl)-4-(trans-2,3-dimethylmorpholino)-6-morpholinopyrimidine] had a melting point of 150 to 153 °C. Further, the GI50 with MCF-7 cells (setting [1]) amounted to 190 nM.

Take `C[C@@H]1CO[C@@H](C)CN1c1nc(N2CCOCC2)nc(-n2c(C(F)F)nc3ccccc32)n1` (relative stereo) [compound 18, 2-(2-difluoromethylbenzimidazol-1-yl)-4-(trans-2,5-dimethylmorpholino)-6-morpholino-1,3,5-triazine]: in the series with MCF-7 cells (setting [1]), the GI50 was found to be 180 nM.

Compound `C[C@@H]1COC(C)(C)CN1c1nc(N2CCOCC2)nc(-n2c(C(F)F)nc3ccccc32)n1` [compound 20, 2-(2-difluoromethylbenzimidazol-1-yl)-4-morpholino-6-[2,2,5(R)-trimethylmorpholino]-1,3,5-triazine] registered a melting point of 169 to 171 °C. Moreover, the GI50 with MCF-7 cells (setting [1]) is 220 nM.

Compound `C[C@@H]1OCCN(c2cc(N3CCCC3CO)nc(-n3c(CO)nc4ccccc43)n2)[C@@H]1C` (relative stereo) [compound 12, 4-(cis-2,3-dimethylmorpholino)-2-(2-hydroxymethylbenzimidazol-1-yl)-6-(2-hydroxymethylpyrrolidin-1-yl)pyrimidine] registered a melting point of 104 to 108 °C. Further, the GI50 in the series on MCF-7 cells (setting [1]) is 390 nM.

As to `CC1CN(c2cc(N3CCOCC3)nc(-n3c(C(F)F)nc4ccccc43)n2)CCO1` (centres unmarked) [compound 6, 2-(2-difluoromethylbenzimidazol-1-yl)-4-(2-methylmorpholino)-6-morpholinopyrimidine], in the series with MCF-7 cells (setting [1]), the GI50 is 290 nM.

The compound `C[C@@H]1OCCN(c2cc(N3CCOCC3)nc(-n3c(CF)nc4ccccc43)n2)[C@@H]1C` (relative stereo) [compound 9, 4-(cis-2,3-dimethylmorpholino)-2-(2-fluoromethylbenzimidazol-1-yl)-6-morpholinopyrimidine] returned a melting point of 163 to 165 °C. Further, the GI50 in the series on MCF-7 cells (setting [1]) amounted to 200 nM.

Turning to `CC1(C)CN(c2nc(N3CCOCC3)nc(-n3c(C(F)F)nc4ccccc43)n2)CCO1` [compound 15, 2-(2-difluoromethylbenzimidazol-1-yl)-4-(2,2-dimethylmorpholino)-6-morpholino-1,3,5-triazine], the melting point was in the range of 176 to 178 °C. The GI50 in the series with MCF-7 cells (setting [1]) was found to be 130 nM.

In the case of `FC(F)c1nc2ccccc2n1-c1nc(N2CCOCC2)nc(N2CCSCC2)n1` [compound 16, 2-(2-difluoromethylbenzimidazol-1-yl)-4-morpholino-6-thiomorpholino-1,3,5-triazine], the GI50 in the series on MCF-7 cells (setting [1]) was found to be 350 nM.

As for `CC1(C)CN(c2nc(N3CCOCC3)nc(-n3c(C(F)F)nc4c(O)cccc43)n2)CCO1` [compound 38, 2-(2-difluoromethyl-4-hydroxybenzimidazol-1-yl)-4-(2,2-dimethylmorpholino)-6-morpholino-1,3,5-triazine], the melting point is 228 to 231 °C (dec.). Moreover, the GI50 in the series with MCF-7 cells (setting [1]) turned out to be 30 nM.

As to `CC1(C)CN(c2cc(N3CCOCC3)nc(-n3c(C(F)F)nc4ccccc43)n2)CCO1` [compound 5, 2-(2-difluoromethylbenzimidazol-1-yl)-4-(2,2-dimethylmorpholino)-6-morpholinopyrimidine], the melting point fell in the range of 149 to 152 °C. In addition, the GI50 in the series on MCF-7 cells (setting [1]) stood at 220 nM.

Consider `Oc1ccc2c(c1)nc(C(F)F)n2-c1nc(N2CCOCC2)cc(N2CCOCC2)n1` [compound 40, 2-(2-difluoromethyl-5-hydroxybenzimidazol-1-yl)-4,6-dimorpholinopyrimidine], for which the melting point was 223 to 226 °C (dec.). Further, the GI50 in the series with MCF-7 cells (setting [1]) worked out at 210 nM.

In the case of `CN(C)c1nc(N(C)C)nc(N(C)C)n1` [compound D, hexamethylmelamine, reference compound], the GI50 with MCF-7 cells (setting [1]) is above 100000 nM.

As for `CCC(=O)Nc1nc2ccccc2n1-c1nc(N2CCOCC2)nc(N2CCO[C@@H](C)[C@@H]2C)n1` (relative stereo) [compound 25, 2-(2-propionylaminobenzimidazol-1-yl)-4-(trans-2,3-dimethylmorpholino)-6-morpholino-1,3,5-triazine], the GI50 in the series with MCF-7 cells (setting [1]) turned out to be 190 nM.

Regarding `C[C@@H]1OCCN(c2nc(N3CCOCC3)nc(-n3c(NC=O)nc4ccccc43)n2)[C@H]1C` (relative stereo) [compound 26, 2-(trans-2,3-dimethylmorpholino)-4-(2-formylaminobenzimidazol-1-yl)-6-morpholino-1,3,5-triazine], in the series with MCF-7 cells (setting [1]), the GI50 was below 40 nM.

For the compound `C[C@@H]1OCCN(c2cc(N3CCOCC3)nc(-n3c(C(F)F)nc4ccccc43)n2)[C@H]1C` (relative stereo) [compound 4, 2-(2-difluoromethylbenzimidazol-1-yl)-4-(trans-2,3-dimethylmorpholino)-6-morpholinopyrimidine], in the series on MCF-7 cells (setting [1]), the GI50 is 180 nM.

For the compound `c1cn(-c2nc(N3CCOCC3)nc(N3CCOCC3)n2)cn1` [compound C, 2-(imidazol-1-yl)-4,6-dimorpholino-1,3,5-triazine, reference compound], the GI50 in the series with MCF-7 cells (setting [1]) was determined as 20000 nM.

The compound `C[C@@H]1OCCN(c2cc(N3CCOCC3)nc(-n3c(N)nc4ccccc43)n2)[C@@H]1C` (relative stereo) [Example 2, 2-(2-aminobenzimidazol-1-yl)-4-(cis-2,3-dimethylmorpholino)-6-morpholinopyrimidine] had a melting point of 129 to 133 °C.

`C[C@@H]1OCCN(c2cc(N3CCOCC3)nc(-n3cnc4ccccc43)n2)[C@H]1C` (relative stereo) [compound A, 2-(benzimidazol-1-yl)-4-(trans-2,3-dimethylmorpholino)-6-morpholinopyrimidine]: the GI50 in the series on MCF-7 cells (setting [1]) was found to be 2200 nM.

With `[O-][S+]1CCN(c2nc(N3CCOCC3)nc(-n3c(C(F)F)nc4ccccc43)n2)CC1` [compound 21, 2-(2-difluoromethylbenzimidazol-1-yl)-4-morpholino-6-(tetrahydro-1,4-thiazin-1-oxo-4-yl)-1,3,5-triazine], in the series with MCF-7 cells (72 hours culture with sample), the GI50 came to 340 nM.

Values taken from patent US7307077B2, “Heterocyclic compound and antitumor agent containing the same as effective ingredient” (Zenyaku Kogyo Kabushiki Kaisha, priority 2001, dated 2007).
